Patent publication US12570687B2, “Triterpenoid compounds, pharmaceutical compositions thereof, and their use for treating a nuclear receptor subfamily 4 group a member 1-mediated disease” (NUCMITO PHARMACEUTICALS COMPANY LIMITED, priority 2019, dated 2026)

Columns and labels:
Assay type in all cases: cell-based
[1] = test system: MDA-MB-231 (breast cancer); experiment: MTT antiproliferative assay, MDA-MB-231; details: Homo sapiens, MDA-MB-231, 10 μM, 48 or 72 h, read-out: inhibition of cell growth, MDA-MB-231
Procedure: (§1) The antiproliferative activity of a test compound was determined in cell lines: MDA-MB-231 (breast cancer), HepG2 (liver cancer), SW620 (colon cancer), A375 (malignant melanoma), A431 (epidermoid carcinoma), A549 (lung adenocarcinoma), and HeLa ([…]). MDA-MB-231, HepG2, SW480, SW620, A375, and A431 cells were cultured in Dulbecco's modified Eagle's medium (DMEM) containing 10% fetal bovine serum (FBS). HeLa cells were cultured in MEM/EBSS (MEM) containing 10% FBS. A549 cells were maintained in Kaighn's modification of Ham's F-12 medium containing 10% FBS. The colorimetric MTT (3-(4,5-dimethylthiazol-2-yl)-2,5-diphenyltetrazolium bromide) assay was used to measure the cell viability of different cells following treatment with the test compound.
(§2) Briefly cells were seeded in a 96 well plate at a density of 2,000-5,000 cells/well. Following attachment, the cells were treated with the test compound in media at various concentrations ranging from 0.137 to 100 μM or at a single concentration of 10 μM. After the cells were incubated at 37° C. for 48 or 72 h, MTT (20 μL, 5 mg/mL in PBS) was added to each well and the cells were incubated for another 4 h at 37° C. The supernatant was removed carefully and 150 μL of DMSO was added to each well to dissolve the MTT formazan crystals. The plate was shaken for 15-20 min and the absorbance value of each well was determined using a multi-well plate reader at 490 nm. The wells treated with DMSO were taken as a vehicle control. Data were also obtained similarly for all the replicates and the percentage viability was determined with respect to the DMSO-treated cells. The results are summarized in Table 1 below, wherein A represents no less than 80% inhibition of cell growth at 10 μM; B represents no less than 50% but less than 80% inhibition of cell growth at 10 μM; C represents no less than 30% but less than 50% inhibition of cell growth at 10 μM; and D represents less than 30% inhibition of cell growth at 10 μM.

HeLa (ovarian cancer) = experiment: MTT antiproliferative assay, HeLa; details: Homo sapiens, 48 or 72 h, read-out: inhibition of cell growth, HELA
Procedure: as §1, §2

SW620 (colon cancer) = experiment: MTT antiproliferative assay, SW620; details: Homo sapiens, SW-620, SW620, 10 μM, 48 or 72 h, read-out: inhibition of cell growth, SW620
Procedure: as §1, §2

[2] = test system: A549 (lung adenocarcinoma); experiment: MTT antiproliferative assay, A549; details: Homo sapiens, A549, 10 μM, 48 or 72 h, read-out: inhibition of cell growth, A549
Procedure: as §1, §2

[3] = test system: A431 (epidermoid carcinoma); experiment: MTT antiproliferative assay, A431; details: Homo sapiens, A-431, A431, 10 μM, 48 or 72 h, read-out: inhibition of cell growth, A431
Procedure: as §1, §2

[4] = test system: A375 (malignant melanoma); experiment: MTT antiproliferative assay, A375; details: Homo sapiens, A-375, A375, 10 μM, 48 or 72 h, read-out: inhibition of cell growth, A375
Procedure: as §1, §2

HepG2 (liver cancer) = experiment: MTT antiproliferative assay, HepG2; details: Homo sapiens, HepG2, 10 μM, 48 or 72 h, read-out: inhibition of cell growth, HepG2
Procedure: as §1, §2

Row | SMILES | inhibition at 10 µM [1] [%] | inhibition at 10 µM (HeLa (ovarian cancer)) [%] | inhibition at 10 µM (SW620 (colon cancer)) [%] | inhibition at 10 µM [2] [%] | inhibition at 10 µM [3] [%] | inhibition at 10 µM [4] [%] | inhibition at 10 µM (HepG2 (liver cancer)) [%]
1 | CCO[C@]1(C)C(=O)C(=O)C=C2C1=CC=C1[C@@]2(C)CC[C@@]2(C)[C@@H]3C[C@](C)(C(=O)O)CC[C@]3(C)CC[C@]12C [Compound A28, (2R,4aS,6aS,9S,12bR,14aS,14bR)-9-ethoxy-2,4a,6a,9,12b,14a-hexamethyl-10,11-dioxo-1,2,3,4,4a,5,6,6a,9,10,11,12b,13,14,14a,14b-hexadecahydropicene-2-carboxylic acid] | 50 to 80 | ≥ 80 | 30 to 50 | 30 to 50 | 50 to 80 | 30 to 50 | 50 to 80
2 | CO[C@@]1(C)C2=CC=C3[C@@](C)(CC[C@@]4(C)[C@@H]5C[C@](C)(C(=O)O)CC[C@]5(C)CC[C@]34C)C2=CC(O)C1O (stereo partly drawn) [Compound A29, (2R,4aS,6aS,9S,12bR,14aS,14bR)-10,11-dihydroxy-9-methoxy-2,4a,6a,9,12b,14a-hexamethyl-1,2,3,4,4a,5,6,6a,9,10,11,12b,13,14,14a,14b-hexadecahydropicene-2-carboxylic acid] | < 30 | 50 to 80 | < 30 | < 30 | < 30 | < 30 | < 30
3 | CO[C@@]1(C)C2=CC=C3[C@@](C)(CC[C@@]4(C)[C@@H]5C[C@](C)(C(=O)O)CC[C@]5(C)CC[C@]34C)C2=CC(=O)/C1=C\C#N [Compound A30, (2R,4aS,6aS,9S,10Z,12bR,14aS,14bR)-10-(cyanomethylidene)-9-methoxy-2,4a,6a,9,12b,14a-hexamethyl-11-oxo-1,2,3,4,4a,5,6,6a,9,10,11,12b,13,14,14a,14b-hexadecahydropicene-2-carboxylic acid] | ≥ 80 | ≥ 80 | ≥ 80 | 30 to 50 | ≥ 80 | 50 to 80 | ≥ 80
4 | CO[C@@]1(C)C2=CC=C3[C@@](C)(CC[C@@]4(C)[C@@H]5C[C@](C)(C(=O)O)CC[C@]5(C)CC[C@]34C)C2=CC(=O)/C1=C/C#N [Compound A31, (2R,4aS,6aS,9S,10E,12bR,14aS,14bR)-10-(cyanomethylidene)-9-methoxy-2,4a,6a,9,12b,14a-hexamethyl-11-oxo-1,2,3,4,4a,5,6,6a,9,10,11,12b,13,14,14a,14b-hexadecahydropicene-2-carboxylic acid] | ≥ 80 | ≥ 80 | ≥ 80 | 50 to 80 | 50 to 80 | 50 to 80 | 50 to 80
5 | COC(=O)[C@]1(C)CC[C@]2(C)CC[C@]3(C)C4=CC=C5C(=CC(=O)C(=O)C5(C)O)[C@]4(C)CC[C@@]3(C)[C@@H]2C1 (stereo partly drawn) [Compound A32, methyl (2R,4aS,6aS,12bR,14aS,14bR)-9-hydroxy-2,4a,6a,9,12b,14a-hexamethyl-10,11-dioxo-1,2,3,4,4a,5,6,6a,9,10,11,12b,13,14,14a,14b-hexadecahydropicene-2-carboxylate] | ≥ 80 | ≥ 80 | ≥ 80 | ≥ 80 | ≥ 80 | 50 to 80 | ≥ 80
6 | COC(=O)[C@]1(C)CC[C@]2(C)CC[C@]3(C)C4=CC=C5C(=CC(=O)/C(=C\C#N)C5(C)O)[C@]4(C)CC[C@@]3(C)[C@@H]2C1 (stereo partly drawn) [Compound A33, methyl (2R,4aS,6aS,10Z,12bR,14aS,14bR)-10-(cyanomethylidene)-9-hydroxy-2,4a,6a,9,12b,14a-hexamethyl-11-oxo-1,2,3,4,4a,5,6,6a,9,10,11,12b,13,14,14a,14b-hexadecahydropicene-2-carboxylate] | ≥ 80 | ≥ 80 | ≥ 80 | 30 to 50 | 50 to 80 | 50 to 80 | ≥ 80
7 | COC(=O)[C@]1(C)CC[C@]2(C)CC[C@]3(C)C4=CC=C5C(=CC(=O)/C(=C/C#N)C5(C)O)[C@]4(C)CC[C@@]3(C)[C@@H]2C1 (stereo partly drawn) [Compound A34, methyl (2R,4aS,6aS,10E,12bR,14aS,14bR)-10-(cyanomethylidene)-9-hydroxy-2,4a,6a,9,12b,14a-hexamethyl-11-oxo-1,2,3,4,4a,5,6,6a,9,10,11,12b,13,14,14a,14b-hexadecahydropicene-2-carboxylate] | ≥ 80 | ≥ 80 | ≥ 80 | 50 to 80 | 50 to 80 | 50 to 80 | ≥ 80
8 | COC(=O)[C@]1(C)CC[C@]2(C)CC[C@]3(C)C4=CC=C5C(=CC(=O)C(O)C5(C)O)[C@]4(C)CC[C@@]3(C)[C@@H]2C1 (stereo partly drawn) [Compound A35, methyl (2R,4aS,6aS,12bR,14aS,14bR)-9,10-dihydroxy-2,4a,6a,9,12b,14a-hexamethyl-11-oxo-1,2,3,4,4a,5,6,6a,9,10,11,12b,13,14,14a,14b-hexadecahydropicene-2-carboxylate] | ≥ 80 | ≥ 80 | ≥ 80 | ≥ 80 | ≥ 80 | 50 to 80 | ≥ 80
9 | COC(=O)[C@]1(C)CC[C@]2(C)CC[C@]3(C)C4=CC=C5C(=C/C(=C\C#N)C(=O)C5(C)O)[C@]4(C)CC[C@@]3(C)[C@@H]2C1 (stereo partly drawn) [Compound A37, methyl (2R,4aS,6aS,11E,12bR,14aS,14bR)-11-(cyanomethylidene)-9-hydroxy-2,4a,6a,9,12b,14a-hexamethyl-10-oxo-1,2,3,4,4a,5,6,6a,9,10,11,12b,13,14,14a,14b-hexadecahydropicene-2-carboxylate] | ≥ 80 | ≥ 80 | 50 to 80 | < 30 | ≥ 80 | 30 to 50 | 30 to 50
10 | CC12OCCOC1(O)C(=O)C=C1C2=CC=C2[C@@]1(C)CC[C@@]1(C)[C@@H]3C[C@](C)(C(=O)O)CC[C@]3(C)CC[C@]21C (stereo partly drawn) [Compound A43, (6bS,8aS,11R,12aR,12bS,14aR)-16a-hydroxy-4a,6b,8a,11,12b,14a-hexamethyl-16-oxo-2,3,4a,6b,7,8,8a,9,10,11,12,12a,12b,13,14,14a,16,16a-octadecahydropiceno[3,4-b][1,4]dioxine-11-carboxylic acid] | < 30 | < 30 | < 30 | < 30 | < 30 | < 30 | < 30
11 | CO[C@]1(C)C(=O)C(=O)C=C2C1=CC=C1[C@@]2(C)CC[C@@]2(C)[C@@H]3C[C@](C)(C(=O)NCCO)CC[C@]3(C)CC[C@]12C [Compound A44, (2R,4aS,6aS,9S,12bR,14aS,14bR)—N-(2-hydroxyethyl)-9-methoxy-2,4a,6a,9,12b,14a-hexamethyl-10,11-dioxo-1,2,3,4,4a,5,6,6a,9,10,11,12b,13,14,14a,14b-hexadecahydropicene-2-carboxamide] | ≥ 80 | ≥ 80 | 50 to 80 | ≥ 80 | ≥ 80 | 30 to 50 | ≥ 80
